# Laboratory results reported in PubChem BioAssay AID330 (DTP/NCI, 2004).
# Several values for one entry are separate records, joined by “and”; a condition that tells them apart may be missing. Equal entries are not always repeated. Inconclusive results and toxic doses are left out.
# System: P388 leukemia ip, CD2F1 mice, survival T/C
# Test: NCI In Vivo Anticancer Drug Screen. Data for tumor model P388 Leukemia (intraperitoneal) in CD2F1 (CDF1) mice
# Conditions: endpoint: median survival time, higher = longer survival
# Outline: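 Mice carrying the transplanted tumor received test compound or vehicle. Survival was recorded in each group, and the value is the treated-group measurement divided by that of the vehicle-treated control group.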
# [1] = dose: 25.0 mg/kg/injection, schedule: Q01DX009 (ip), vehicle: saline
# [2] = dose: 50.0 mg/kg/injection, schedule: Q01DX009 (ip), vehicle: saline
# [3] = dose: 50.0 mg/kg/injection, schedule: Q01DX005 (ip), vehicle: Klucel (hydroxypropylcellulose) (HPC)
# [4] = dose: 100.0 mg/kg/injection, schedule: Q01DX005 (ip), vehicle: Klucel (hydroxypropylcellulose) (HPC)
# [5] = dose: 50.0 mg/kg/injection, schedule: Q01DX009 (ip), vehicle: saline with Tween-80
# [6] = dose: 100.0 mg/kg/injection, schedule: Q01DX009 (ip), vehicle: saline with Tween-80
# [7] = dose: 200.0 mg/kg/injection, schedule: Q01DX009 (ip), vehicle: saline with Tween-80
smiles,measurement,setting,value
CCCCN(CCCC)CCCN(CCCOS(C)(=O)=O)CCCOS(C)(=O)=O,T/C,"dose: 20.0 mg/kg/injection, schedule: Q01DX009 (ip), vehicle: saline",181 % of control and 185 % of control
same,T/C,"dose: 40.0 mg/kg/injection, schedule: Q01DX009 (ip), vehicle: saline",231 % of control and 236 % of control
C=[CH][Sn]([CH]=C)([c]1ccccc1)[c]1ccccc1,T/C,"dose: 50.0 mg/kg/injection, schedule: Q01DX005 (ip), vehicle: saline",107 % of control
same,T/C,"dose: 100.0 mg/kg/injection, schedule: Q01DX005 (ip), vehicle: saline",108 % of control
same,T/C,"dose: 200.0 mg/kg/injection, schedule: Q01DX005 (ip), vehicle: saline",104 % of control
COC1(OC)C(c2ccccc2)C(C#N)(S(=O)(=O)c2ccccc2)C1(OC)OC (stereo unspecified),T/C,"dose: 60.0 mg/kg/injection, schedule: Q01DX005 (ip), vehicle: Klucel (hydroxypropylcellulose) (HPC)",100 % of control
same,T/C,"dose: 120.0 mg/kg/injection, schedule: Q01DX005 (ip), vehicle: Klucel (hydroxypropylcellulose) (HPC)",98 % of control
same,T/C,"dose: 240.0 mg/kg/injection, schedule: Q01DX005 (ip), vehicle: Klucel (hydroxypropylcellulose) (HPC)",100 % of control
O=C(O)CC(=O)O.[NH-]CC[NH-].[Pt+2],T/C,"dose: 6.25 mg/kg/injection, schedule: Q04DX002 (ip), vehicle: saline with Tween-80",111 % of control
same,T/C,[1],211 % of control
same,T/C,"dose: 25.0 mg/kg/injection, schedule: Q04DX002 (ip), vehicle: saline with Tween-80",158 % of control
same,T/C,[2],94 % of control
COc1ccc(-c2cnnc3c(-c4cccc(C(F)(F)F)c4)cnn23)cc1,T/C,[3],98 % of control
same,T/C,[4],93 % of control
same,T/C,"dose: 200.0 mg/kg/injection, schedule: Q01DX005 (ip), vehicle: Klucel (hydroxypropylcellulose) (HPC)",89 % of control
O=C(CCl)Nc1ccccc1S(=O)(=O)F,T/C,"dose: 12.5 mg/kg/injection, schedule: Q01DX009 (ip), vehicle: Klucel (hydroxypropylcellulose) (HPC)",100 % of control
same,T/C,"dose: 25.0 mg/kg/injection, schedule: Q01DX009 (ip), vehicle: Klucel (hydroxypropylcellulose) (HPC)",107 % of control
same,T/C,"dose: 50.0 mg/kg/injection, schedule: Q01DX009 (ip), vehicle: Klucel (hydroxypropylcellulose) (HPC)",96 % of control
same,T/C,"dose: 100.0 mg/kg/injection, schedule: Q01DX009 (ip), vehicle: Klucel (hydroxypropylcellulose) (HPC)",107 % of control
CC(C)OC(=O)C(C)(C)Oc1ccc(C(=O)c2ccc(Cl)cc2)cc1,T/C,[5],111 % of control
same,T/C,[6],98 % of control
same,T/C,[7],97 % of control
CC(C)=CCC/C(C)=C/COC(=O)C=[N+]=[N-],T/C,[5],114 % of control and 91 % of control
same,T/C,[6],122 % of control
same,T/C,[7],117 % of control and 122 % of control
same,T/C,"dose: 400.0 mg/kg/injection, schedule: Q01DX009 (ip), vehicle: saline with Tween-80",95 % of control
CNC(=O)OCc1nn(-c2ccc(Cl)cc2)c(C)c1COC(=O)NC,T/C,"dose: 1.56 mg/kg/injection, schedule: Q01DX009 (ip), vehicle: distilled water + Tween-80",103 % of control
same,T/C,"dose: 3.12 mg/kg/injection, schedule: Q01DX009 (ip), vehicle: distilled water + Tween-80",100 % of control
same,T/C,"dose: 6.25 mg/kg/injection, schedule: Q01DX009 (ip), vehicle: distilled water + Tween-80",97 % of control
same,T/C,"dose: 12.5 mg/kg/injection, schedule: Q01DX009 (ip), vehicle: distilled water + Tween-80",101 % of control and 89 % of control and 95 % of control
same,T/C,"dose: 25.0 mg/kg/injection, schedule: Q01DX009 (ip), vehicle: distilled water + Tween-80",93 % of control
same,T/C,"dose: 100.0 mg/kg/injection, schedule: Q01DX009 (ip), vehicle: distilled water + Tween-80",101 % of control and 93 % of control
same,T/C,"dose: 200.0 mg/kg/injection, schedule: Q01DX009 (ip), vehicle: distilled water + Tween-80",102 % of control and 108 % of control
N=C(N)c1ccc(NC(=S)Nc2ccc(C(=N)N)cc2)cc1,T/C,"dose: 6.25 mg/kg/injection, schedule: Q01DX009 (ip), vehicle: saline",101 % of control
same,T/C,"dose: 12.5 mg/kg/injection, schedule: Q01DX009 (ip), vehicle: saline",99 % of control
same,T/C,[1],99 % of control
CC(C)=CCc1c(C)cc2cc3c(c(O)c2c1O)C(O)=CC(=O)C3(CC=C(C)C)CC=C(CO)CO (stereo unspecified),T/C,"dose: 25.0 mg/kg/injection, schedule: Q01DX005 (ip), vehicle: Klucel (hydroxypropylcellulose) (HPC)",97 % of control
same,T/C,[3],93 % of control
same,T/C,[4],94 % of control
Cc1[nH]ccc(=O)c1O,T/C,"dose: 16.0 mg/kg/injection, schedule: Q01DX009 (ip), vehicle: saline with Tween-80",105 % of control
same,T/C,"dose: 32.0 mg/kg/injection, schedule: Q01DX009 (ip), vehicle: saline with Tween-80",110 % of control
same,T/C,[2],123 % of control
same,T/C,"dose: 100.0 mg/kg/injection, schedule: Q01DX009 (ip), vehicle: saline",124 % of control
same,T/C,"dose: 200.0 mg/kg/injection, schedule: Q01DX009 (ip), vehicle: saline",153 % of control
same,T/C,"dose: 400.0 mg/kg/injection, schedule: Q01DX009 (ip), vehicle: saline",98 % of control
same,T/C,"dose: 512.0 mg/kg/injection, schedule: Q01DX009 (ip), vehicle: saline with Tween-80",91 % of control
